How the values were obtained:
[1] = tested on: E. coli growth in LB media; assay: Synergy between DDAC and TTPC by flow cytometry, Example 3; conditions: 40 ppm of biocide, ratio DDAC:TTPC
[2] = tested on: E. coli in LB media; assay: Effect of citric acid treatment on flow cytometry viable bacteria, Examples 8-9; type: cell-based, Escherichia coli; conditions: concentration less than or equal to 20 mM
[3] = tested on: Cultures of E. coli; assay: Viability measured by flow cytometry, Example 6; type: cell-based; conditions: Escherichia coli, 4 hours at 37° C., n=3, ± 1 standard deviation, read-out: reduced viable bacteria (flow cytometry)
Experimental: (§1) Cultures of E. coli were left untreated or treated with tributyltetradecyl phosphonium chloride (TTPC) at 75 ppm, 150 ppm, or 300 ppm. Flow cytometry samples were prepared as described in Example 1 and triplicate culture bottles were prepared of the treated E. coli and untreated E. coli after 4 hours of incubation at 37° C. […] Viability was measured by flow cytometry and serial dilution in LB media. […] Error bars indicate 1 standard deviation. An asterisk indicates a statistically significant difference (p<0.05) and two asterisk indicates a p-value <0.01.

[4] = tested on: Cultures of E. coli; assay: Viability by standard culture method (serial dilution in LB media), Example 6; type: cell-based; conditions: Escherichia coli, 4 hours at 37° C., n=3, ± 1 standard deviation, read-out: reduced viable bacteria (serial dilution culturing)
Experimental: as §1

Compound	Depolarized and Membrane-damaged/mL [1] [mL⁻¹]	Depolarized/mL [1] [mL⁻¹]	Membrane-damaged/mL [1] [mL⁻¹]	Viable/mL [1] [mL⁻¹]	effect on cell viability when analyzed by flow cytometry [2]	inhibition at 75 ppm ([3]; 75 ppm) [%]	inhibition at 150 ppm ([3]; 150 ppm) [%]	inhibition at 300 ppm ([3]; 300 ppm) [%]	inhibition at 75 ppm ([4]; 75 ppm) [%]	inhibition at 150 ppm ([4]; 150 ppm) [%]	inhibition at 300 ppm ([4]; 300 ppm) [%]
CCCCCCCCCC[N+](C)(C)CCCCCCCCCC.[Cl-] [10:0, didecyldimethylammonium chloride]	555000	1.45e+06	349	5390							
O=C(O)CC(O)(CC(=O)O)C(=O)O [citric acid]					does not affect the cell viability						
CCCCCCCCCCCCCC[P+](CCCC)(CCCC)CCCC.[Cl-] [TTPC, tributyl tetradecyl phosphonium chloride]	1.67e+06	2.54e+06	537	6330		97.9	99.7	100	99	100	100

Source: patent US9382572B2, “Methods of determining biocide efficacy or mechanism of action using flow cytometry” (Ecolab USA Inc., priority 2013, dated 2016)
